According to US11260096B2, “Compositions for creatine supplementation in creatine non-responders” (ThermoLife International, LLC, priority 2019, dated 2022):
“And” between values parts separate entries of the source, which are not always exact repeats. Equal values may be shown once. “Also recorded” adds a separate entry of the source.

Experiments:
[1] = single-dose pharmacokinetics experiment: serum creatine and creatinine by LC-MS/MS; format: in vivo, human; settings: for AUC (serum creatine) after single-dose intervention: linear-log trapezoidal method
Experimental: (§1) Ten healthy young men (age 23.6±2.9 years, body mass index 23.8±1.5 kg/m′) were recruited and signed informed consent to voluntarily participate in this double-blind, crossover, randomized controlled trial. All experimental procedures were approved by the local institutional review board, and the study was conducted in accordance with the Declaration of Helsinki. All participants had no history of creatine supplementation (or other dietary supplements) within the 4 weeks before the study commenced. All participants also had no acute or chronic diseases as evaluated by pre-participation health check and blood profiles. All participants were required to maintain their normal activity patterns and diet during the study. The participants were required to not engaged in any exhaustive exercise 24 hours before the study commenced.
(§2) Washout period of 7 days was employed between all trials to prevent the residual or carry-over effects of treatments across study periods. For the single-dose experiment, participants were administered a liquid composition that was prepared by a researcher by dissolving a powder of their respective treatment compounds in 150 mL of lukewarm water. For the 5-day intervention, the participants received five powder sachets (one per day) containing an treatment compounds. The participants were advised to stir the content of the sachet into 150 mL of lukewarm water until the powder has dissolved and to drink the liquid composition about 30 minutes before breakfast. […] Clinical assessments for both experiments were carried out between 08:00 and 12:00 after an overnight fast of 12 hours. Venous blood samples were drawn at each time point (7 points in total) for a single-dose experiment, and serum analyzed for creatine and creatinine by modified LC-MS/MS (1200 Series LC System; Agilent Technologies Inc., Santa Clara, Calif., USA). To control for variance based on different hydration levels, all participants were restricted from water ingestion between the time of collecting the baseline sample and 120 minutes after administration of the treatment. For 5-day experiment, venous blood samples were drawn at baseline and at the various follow-up times, with serum analyzed for liver enzymes by an automated analyzer (Randox Laboratories Ltd., Crumlin, UK).
Where significant differences were found, the Tukey post-hoc test was employed to identify the differences. The area under the concentration-time curve (AUC) for serum creatine and creatinine were calculated using the linear-log trapezoidal method, with AUCs compared with one-way ANOVA. The significance level was set at P<0.05. Data were analyzed using the SPSS program (SPSS Inc., Chicago, Ill., USA).

[2] = 5-day intervention: total muscle creatine by proton magnetic resonance spectroscopy (MRS); format: in vivo, human; settings: after five-day intervention vs baseline
Experimental: as §1, with “The participants were required to not engaged in any exhaustive exercise 24 hours before the study commenced.” left out
Washout period of 7 days was employed between all trials to prevent the residual or carry-over effects of treatments across study periods. […] Creatinine anhydrous has been produced from creatine monohydrate in an autoclave (Memmert UF 55, Schwabach, Germany) at 160° C. for 72 hours, with creatinine purity>99% in a final powder, as determined by NMR spectroscopy (Bruker Avance III 400, Billerica, Mass.). […] Venous blood samples were drawn at each time point (7 points in total) for a single-dose experiment, and serum analyzed for creatine and creatinine by modified LC-MS/MS (1200 Series LC System; Agilent Technologies Inc., Santa Clara, Calif., USA). […]

[3] = 5-day intervention: liver enzymes and estimated glomerular filtration rate (safety biomarkers); format: in vivo, human
Experimental: as §1
as §2, with “Creatinine anhydrous has been produced from creatine monohydrate in an autoclave (Memmert UF 55, Schwabach, Germany) at 160° C.” for “Clinical assessments”, “72 hours, with creatinine purity>99% in a final powder, as determined by NMR spectroscopy (Bruker Avance III 400, Billerica, Mass.). […]” for “both experiments were carried out between 08:00 and 12:00 after an overnight fast of 12 hours.”, “To control for variance based on different hydration levels, all participants were restricted from water ingestion between the time of collecting the baseline sample and 120 minutes after administration of the treatment.” left out
Estimated glomerular filtration rate (eGFR) was calculated by the abbreviated MDRD equation (Stevens et al., Am J Kidney Dis. 2007; 50: 21-35). […] In vivo metabolite concentrations were calculated using the muscle water signal as an internal intensity reference (Wang et al., J Magn Reson. 2014, 243: 81-84). […] The peak integral values of the total creatine (creatine plus phosphocreatine) signal at 3.0 ppm and the non-suppressed water signal at 4.7 ppm were quantified using curve-fitting to Gaussian lines. […]

[4] = adverse events evaluated via open-ended questionnaires; format: in vivo, human; settings: 5-day intervention, single participants
Experimental: Estimated glomerular filtration rate (eGFR) was calculated by the abbreviated MDRD equation (Stevens et al., Am J Kidney Dis. 2007; 50: 21-35). […] Twelve datasets were obtained for each individual yielding a total of 120 spectra in this study. In vivo metabolite concentrations were calculated using the muscle water signal as an internal intensity reference (Wang et al., J Magn Reson. 2014, 243: 81-84). The spectra were fitted in the time domain using a nonlinear least squares algorithm ([…]) in the Java-based magnetic resonance user interface (jMRUI) software package. […] Finally, possible adverse events of the intervention (e.g. muscle cramps, bloating, diarrhea) were evaluated via open-ended questionnaires administered during the trial.

[5] = cited from earlier work

Row | SMILES | concentration at 60 min ([1]; male, human, in vivo, single oral dose (3 g CN + 3 g creatinine, 3 g CN or 3 g CRM), peak time, n=10 healthy men, read-out: average serum creatine concentration at 60 minutes post-administration) | change in serum creatinine during the single-dose study (in words) ([1]; single oral dose) | AUC (serum creatine) after single-dose intervention ([1]; single oral dose) | average increase in total muscle creatine levels [2] | participants with mildly reduced kidney function (eGFR 60-89 mL/min/1.73 m^2) ([3]; 5-day intervention, n=10) | eGFR ([3]; at 5-day follow-up, mean ± SD, abbreviated MDRD equation) | reported side effects / adverse events (in words) ([4]; nitrate) | AUC for serum creatinine ([1]; single oral dose) | increase of total creatine content in skeletal muscles ([5]; dosages up to 30 g for a few days, human subject) | eGFR ([3]; in vivo) | participants with mildly reduced kidney function (eGFR 60-89 mL/min/1.73 m^2) ([3]; in vivo) | reported side effects / adverse events (in words) [4] | individuals who do not respond to creatine supplementation (prevalence of non-responders) ([5]; less than 10 mmol/kg dw increase in resting total muscle creatine after five days at 20 g/day)
1 | CN(CC(=O)O)C(=N)N.O=[N+]([O-])O [CN, creatine nitrate] | 164 ± 12.9 µM | remained essentially unchanged | 622.7 ± 62.9 µmol·min/L | 8.0% | 40.0% | 89.8 ± 8.1 mL/min/1.73 m^2 | irregular non-diarrheal bowel movements; also recorded: excessive sleepiness |  |  |  |  |  | 
2 | CN(CC(=O)O)C(=N)N.O [CRM, creatine monohydrate] |  | remained essentially unchanged | 466.3 ± 47.9 µmol·min/L | 2.1% |  |  |  | 607.5 ± 37.7 µmol·min/L | more than 20% | 91.7 ± 8.3 mL/min/1.73 m^2 | 30.0% | episodes of bloating | 
3 | CN(CC(=O)O)C(=N)N [creatine] |  |  |  |  |  |  |  |  |  |  |  |  | about 25% and 20-30%
